The source of these data is ChEMBL document CHEMBL1201862, “PubChem BioAssay data set” (2004).

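Grown in 96-well plates, cells were treated for 48 hours with each compound at five concentrations. Insufficient inhibition: endpoint recorded as highest concentration tested. GI50 is the concentration that inhibits growth by half.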 Activity calls are given as the source filed them. Cut-off read from the data, not from the text of the source: active = GI50 up to about 1.1 µM and inactive = higher.

Some test systems named below: T47D; HCC 2998; SK-MEL-2; CCRF-CEM; U-251; UACC-62; HOP-62; RPMI-8226; HL-60; PC-3; SNB-19; NCI-H460; HCT-116; OVCAR-5; M14; NCI-H23; SK-MEL-28; HCT-15; BT-549; MDA-MB-231.
Assay in all cases: DTP human tumour cell line panel, 48 h

On to `O=C(OC12CC3CC(CC(C3)C1)C2)c1ccc(NCc2cc(O)ccc2O)cc1`, for which the GI50 – broadly, the concentration that inhibits growth by half – with T47D is 0.262 µM (active); in the test with HCC 2998, 1.7 µM (inactive); in the test on SK-MEL-2, 1.35 µM (inactive); in the test on CCRF-CEM it was 0.0383 µM (active); with U-251, 0.701 µM (active); in the test on UACC-62, 1.3 µM (inactive). The GI50 was 4.52 µM (inactive) in the test on HOP-62; 0.0966 µM (active) in the test with RPMI-8226; 0.0491 µM (active) with HL-60; 0.667 µM (active) with PC-3; 2.31 µM (inactive) in the test on SNB-19; 2.53 µM (inactive) with NCI-H460. The GI50 with HCT-116 is 1.17 µM (inactive); in the test with OVCAR-5 it was 1.73 µM (inactive); with M14, 1.44 µM (inactive); in the test with NCI-H23, 1.07 µM (active); in the test on SK-MEL-28, 0.489 µM (active); with HCT-15 it was 0.435 µM. Also, the GI50 is 0.333 µM (active) with BT-549 and 1.98 µM (inactive) with MDA-MB-231.
In the case of `Cc1c(-c2ccccc2)n[nH]c1NC1(C)C(=O)N(/N=C/c2ccccc2)N=C1c1ccccc1` (stereo not given), the GI50 was > 26 µM (inactive) with T47D; > 100 µM (inactive) with HCC 2998; > 84.1 µM (inactive) in the test on SK-MEL-2; 25.9 µM (inactive) with CCRF-CEM; > 33.6 µM (inactive) in the test with U-251; > 100 µM (inactive) in the test on UACC-62. The GI50 was > 100 µM (inactive) in the test with HOP-62; 5.7 µM (inactive) in the test on RPMI-8226; 46.6 µM (inactive) in the test with HL-60; 24.9 µM (inactive) in the test with PC-3; > 100 µM (inactive) with SNB-19; > 62.5 µM (inactive) in the test on NCI-H460. Also, the GI50 with HCT-116 was > 59.2 µM (inactive); in the test on OVCAR-5 it was > 100 µM (inactive); with M14, > 87.3 µM (inactive); in the test on NCI-H23, > 100 µM (inactive); in the test on SK-MEL-28, > 100 µM (inactive); in the test on HCT-15, > 44.5 µM. Further, the GI50 in the test with BT-549 and in the test on MDA-MB-231 was > 100 µM (inactive) each time.
`CC(C)c1ccc(C(c2c(O)oc3ccccc3c2=O)c2c(O)oc3ccccc3c2=O)cc1`: the GI50 was 31.2 µM (inactive) in the test on T47D; 18.7 µM (inactive) in the test on HCC 2998; 14.5 µM (inactive) in the test with SK-MEL-2; 11.6 µM (inactive) in the test with CCRF-CEM; 15.1 µM (inactive) in the test with U-251; 15.5 µM (inactive) with UACC-62. In addition, the GI50 with HOP-62 is 21.4 µM (inactive); in the test on RPMI-8226, 17.7 µM (inactive); in the test with HL-60, 6.03 µM (inactive); with PC-3 it was 19 µM (inactive); with SNB-19, 20.6 µM (inactive); in the test on NCI-H460, 18.7 µM (inactive). In addition, the GI50 with HCT-116 was 17 µM (inactive); with OVCAR-5, 17.6 µM (inactive); in the test with M14 it was 19.6 µM (inactive); in the test on NCI-H23 it was 23.9 µM (inactive); with SK-MEL-28, 18.9 µM (inactive); in the test on HCT-15 it was 19.1 µM. Moreover, the GI50 in the test with BT-549 is 18.1 µM (inactive); in the test on MDA-MB-231, 21.4 µM (inactive).
On to `O=C1c2ccc(O)cc2OC(c2cc(O)c(O)c(O)c2)C1O` (stereo not given) [DIHYDROBINETIN], for which the GI50 in the test on T47D was 37.8 µM (inactive); in the test with HCC 2998, 31.6 µM (inactive); with SK-MEL-2, 33.1 µM (inactive); in the test on CCRF-CEM it was 24.1 µM (inactive); in the test with U-251, 22.5 µM (inactive); in the test with UACC-62 it was 30.1 µM (inactive). Moreover, the GI50 with HOP-62 is 35.5 µM (inactive); in the test with RPMI-8226, 17.8 µM (inactive); in the test with HL-60 it was 19.9 µM (inactive); with PC-3 it was > 100 µM (inactive); in the test on SNB-19, 41.4 µM (inactive); with NCI-H460, 19.8 µM (inactive). The GI50 in the test with HCT-116 was 22 µM (inactive); in the test with OVCAR-5 it was 58.2 µM (inactive); with M14 it was > 100 µM (inactive); in the test on NCI-H23, 34.5 µM (inactive); in the test on SK-MEL-28, 46.8 µM (inactive); with HCT-15, 33.7 µM. The results for the GI50 with BT-549 and with MDA-MB-231 were 20.5 µM (inactive) and 21.1 µM (inactive), respectively.
Consider `C=C(C)C1CC2=C(C(=O)OC)C=C(O2)C(C(=C)C)[C@@H]2OC(=O)/C(=C\C1O)[C@H]2N(C)C` (stereo not given in full), for which the GI50 is 11.7 µM (inactive) in the test on T47D; 14.7 µM (inactive) in the test on HCC 2998; 13 µM (inactive) in the test with SK-MEL-2; 1.6 µM (inactive) in the test with CCRF-CEM; 15.7 µM (inactive) in the test on U-251; 14.5 µM (inactive) in the test with UACC-62. Further, the GI50 is 19.4 µM (inactive) in the test with HOP-62; 3.23 µM (inactive) in the test with RPMI-8226; 2.82 µM (inactive) in the test with HL-60; 11.4 µM (inactive) in the test with PC-3; 1.65 µM (inactive) with SNB-19; 15.2 µM (inactive) in the test on NCI-H460. Besides, the GI50 in the test on HCT-116 was 13.8 µM (inactive); in the test with OVCAR-5, 16.5 µM (inactive); with M14, 12.9 µM (inactive); in the test with NCI-H23 it was 13.1 µM (inactive); in the test with SK-MEL-28, 13.1 µM (inactive); in the test with HCT-15, 5.97 µM. In addition, the GI50 in the test on BT-549 is 9.75 µM (inactive); with MDA-MB-231, 21.5 µM (inactive).
Take `O=C(O)c1cc(O)nc(S)n1`: the GI50 with T47D, in the test on HCC 2998, with SK-MEL-2, with CCRF-CEM, with U-251 and with UACC-62 was > 100 µM (inactive) throughout. The GI50 with HOP-62, in the test on RPMI-8226, in the test on HL-60, in the test with PC-3, in the test on SNB-19 and in the test with NCI-H460 was > 100 µM (inactive) throughout. Further, the GI50 with HCT-116 is > 100 µM (inactive); with OVCAR-5, > 100 µM (inactive); in the test on M14 it was > 100 µM (inactive); with NCI-H23, > 100 µM (inactive); in the test on SK-MEL-28, > 100 µM (inactive); in the test with HCT-15, > 100 µM. For the same molecule, the GI50 in the test with BT-549 and in the test on MDA-MB-231 was > 100 µM (inactive) in each case.
Take `N#Cc1c(-c2ccccc2)[nH]c2ccc(Cl)cc2c1=O`: the GI50 is > 100 µM (inactive) in the test with T47D; > 100 µM (inactive) with HCC 2998; 16.7 µM (inactive) in the test with SK-MEL-2; > 100 µM (inactive) in the test with CCRF-CEM; 28.2 µM (inactive) with U-251; 57.3 µM (inactive) in the test on UACC-62. Moreover, the GI50 is 25.8 µM (inactive) in the test on HOP-62; > 100 µM (inactive) in the test on RPMI-8226; > 100 µM (inactive) in the test on HL-60; > 100 µM (inactive) with PC-3; 22.9 µM (inactive) in the test with SNB-19; > 100 µM (inactive) in the test on NCI-H460. Besides, the GI50 with HCT-116 was 81.8 µM (inactive); with OVCAR-5 it was > 100 µM (inactive); in the test with M14 it was > 100 µM (inactive); in the test on NCI-H23 it was 92.5 µM (inactive); in the test with SK-MEL-28, > 100 µM (inactive); in the test with HCT-15 it was > 100 µM. Moreover, the GI50 in the test on BT-549 is 22.5 µM (inactive); in the test with MDA-MB-231 it was 21.7 µM (inactive).
On to `COc1ccc2c(c1)CCCC(Br)C2=O` (stereo not given), for which the GI50 in the test on T47D is 23.9 µM (inactive); with HCC 2998, 7.66 µM (inactive); in the test with SK-MEL-2, 1.24 µM (inactive); with CCRF-CEM it was 0.337 µM (active); in the test with U-251, 4.72 µM (inactive); in the test with UACC-62, 2.8 µM (inactive). Further, the GI50 was 5.55 µM (inactive) in the test with HOP-62; 2.34 µM (inactive) with RPMI-8226; 3.59 µM (inactive) with HL-60; 3.9 µM (inactive) in the test with PC-3; 8.18 µM (inactive) in the test on SNB-19; 3.18 µM (inactive) with NCI-H460. Further, the 50% growth inhibitory concentration (GI50) with HCT-116 is 0.407 µM (active); in the test on OVCAR-5 it was 5.92 µM (inactive); with M14, 3.4 µM (inactive); with NCI-H23, 4.9 µM (inactive); in the test with SK-MEL-28, 6.92 µM (inactive); in the test with HCT-15 it was 0.929 µM. Further, the GI50 with BT-549 is 2.55 µM (inactive); in the test on MDA-MB-231, 2.92 µM (inactive).
Consider `C=CCc1cc(C(Cc2ccccc2)NC(C)C)cc(OCc2ccccc2)c1OCc1ccccc1` (stereo not given), for which the GI50 in the test on T47D was 14.5 µM (inactive); in the test on HCC 2998 it was 13.7 µM (inactive); in the test with SK-MEL-2 it was 18.6 µM (inactive); in the test on CCRF-CEM it was 15.9 µM (inactive); with U-251, 14.3 µM (inactive); in the test on UACC-62, 15.1 µM (inactive). In addition, the GI50 with HOP-62 was 15.9 µM (inactive); with RPMI-8226 it was 12.9 µM (inactive); in the test on HL-60 it was 14.5 µM (inactive); in the test on PC-3 it was 15.3 µM (inactive); with SNB-19 it was 15.3 µM (inactive); in the test on NCI-H460 it was 15 µM (inactive). In addition, the GI50 in the test on HCT-116 was 16.4 µM (inactive); in the test on OVCAR-5, 19.1 µM (inactive); in the test with M14 it was 15.3 µM (inactive); with NCI-H23, 18.8 µM (inactive); in the test on SK-MEL-28, 16.4 µM (inactive); with HCT-15, 16.3 µM. The GI50 with BT-549 was 17.3 µM (inactive); in the test on MDA-MB-231, 15 µM (inactive).
With `OCCCNc1[nH]cnc2nncc1-2`, the GI50 in the test on T47D, with HCC 2998, with SK-MEL-2, with CCRF-CEM, with U-251 and in the test with UACC-62 was > 100 µM (inactive) throughout. Moreover, the GI50 with HOP-62, in the test on RPMI-8226, in the test on HL-60, in the test on PC-3, in the test with SNB-19 and in the test on NCI-H460 was > 100 µM (inactive) each time. The GI50 in the test with HCT-116 was > 100 µM (inactive); in the test on OVCAR-5 it was > 100 µM (inactive); in the test on M14, > 100 µM (inactive); in the test with NCI-H23, > 100 µM (inactive); in the test on SK-MEL-28, > 100 µM (inactive); with HCT-15, > 100 µM. The GI50 with BT-549 and in the test on MDA-MB-231 was > 100 µM (inactive) each time.
